In data set [1] the test system is Human immunodeficiency virus 1. As to the kind of experiment: Antiviral activity against HIV1 infected in human MT4 cells assessed as inhibition of virus-induced cytopathogenicity after 6 days by XTT assay. The data set is classed as functional, organism-based. As to conditions: Human immunodeficiency virus 1, MT4, 144 h. (In general: Protection from cytopathic effect is a common read-out in antiviral testing.)

Data set [2] in a line: Cytotoxicity against human MT4 cells assessed as decrease in cell proliferation after 5 days by XTT assay. Type of data set: cell-based. (In general: Tetrazolium assays rely on reduction of a dye to a coloured formazan, in cell work by metabolically active cells.)
Another data set deals with Protease (Human immunodeficiency virus 1, UniProt Q9YQ12). The data set is described as follows: Inhibition of HIV1 protease expressed in Escherichia coli by fluorometric assay.
Data set [3] can be described thus: Metabolic stability in liver microsomes assessed as intrinsic clearance. Type of data set: ADME, Microsome. In general terms: Liver microsomes are vesicles of endoplasmic reticulum, rich in cytochrome P450 enzymes.
The test system of data set [4] is Human immunodeficiency virus 1. As to the kind of experiment: Antiviral activity against HIV1 with protease V32I, M46I A71V, V82A mutant by cell free assay. The data set is classed as functional, organism-based.
Data set [5] has as its system Human immunodeficiency virus 1. As to the kind of experiment: Antiviral activity against HIV1 with protease G48V, L90M mutant by cell free assay. The data set is classed as functional, organism-based.
The test system of data set [6] is Human immunodeficiency virus 1. The data set is described as follows: Antiviral activity against HIV1 with protease M46I, V82F, I84V mutant by cell free assay. Type of data set: functional, organism-based.
Data set [7] can be described thus: Apparent permeability across human Caco-2 cells. Type of data set: ADME, cell-based.
Data set [8] addresses Human immunodeficiency virus type 1 protease (Human immunodeficiency virus 1, UniProt Q72874, I84V/L63P/V82T). As to the kind of experiment: Inhibition of HIV1 protease L63P, V82T, I84V mutant.
The test system of data set [9] is Human immunodeficiency virus 1. As to the kind of experiment: Antiviral activity against HIV1 with protease V32I, M46I V82A mutant by cell free assay. The data set is classed as functional, organism-based.
Data set [10] relates to Human immunodeficiency virus 1. The data set is described as follows: Antiviral activity against […] HIV1 with protease A71V, I84V L90M mutant by cell free assay. Type of data set: functional, organism-based.

Each structure is given as a SMILES string. Bounds are passed on as bounds.

In general, EC50 refers to the concentration at which the effect is half-maximal. By CC50 is commonly meant the concentration at which the toxic effect on the cells reaches its halfway point. Broadly, the Ki is the equilibrium dissociation constant of an inhibitor or competing ligand from its target. Low values mean a stronger hold on the target, high ones a looser hold on the target. A word on the Papp: it is the rate of passage across a membrane or cell layer, normalised by area and donor concentration.

Protease, sequence (Q9YQ12 whole entry): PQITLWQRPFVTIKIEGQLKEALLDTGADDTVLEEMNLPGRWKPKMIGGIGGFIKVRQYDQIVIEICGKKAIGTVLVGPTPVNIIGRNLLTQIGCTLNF
Human immunodeficiency virus type 1 protease, sequence (Q72874 entry or part of it I84V/L63P/V82T): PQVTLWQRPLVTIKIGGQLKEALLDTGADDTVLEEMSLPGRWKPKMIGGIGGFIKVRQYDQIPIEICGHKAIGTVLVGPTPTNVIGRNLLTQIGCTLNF

Turning to `CC(C)CN(C[C@@H](O)[C@H](Cc1ccccc1)NC(=O)O[C@H]1CO[C@H]2OCC[C@H]21)S(=O)(=O)c1ccc(N)cc1`, the EC50 in data set [1] turned out to be 4 nM.

Take `COC(=O)N[C@H](C(=O)N(Cc1ccc(Br)cc1)C[C@@](O)(Cc1ccccc1)C(=O)N[C@H]1c2ccccc2C[C@H]1O)C(C)(C)C`: in [2], the CC50 at 120 h is more than 10000 nM. Further, the EC50 in data set [1] was more than 10000 nM.

Consider `COC(=O)N[C@H](C(=O)NN(Cc1ccccc1)C[C@](O)(Cc1ccccc1)C(=O)N[C@H]1c2ccccc2C[C@H]1O)C(C)(C)C`, for which the Ki on Protease is more than 5000 nM. In [1], the 50% effective concentration (EC50) is more than 10000 nM.

On to `COC(=O)N[C@H](C(=O)NN(Cc1ccc(-c2cccnc2)cc1)C[C@@](O)(Cc1ccccc1)C(=O)N[C@H]1c2ccccc2C[C@H]1O)C(C)(C)C`, for which the CC50 at 120 h in data set [2] was more than 10000 nM. In [3], the clearance was 154 µL/min/mg.

Turning to `COC(=O)N[C@H](C(=O)NN(Cc1ccccc1)C[C@@](O)(Cc1ccccc1)C(=O)N[C@H]1c2ccccc2C[C@H]1O)C(C)(C)C`, on Protease, the Ki is more than 5000 nM. Also, in data set [1], the half-maximal effective concentration (EC50) is more than 10000 nM.

With `CC(C)(C)NC(=O)[C@@H]1CN(Cc2cccnc2)CCN1C[C@@H](O)C[C@@H](Cc1ccccc1)C(=O)N[C@H]1c2ccccc2C[C@H]1O`, in data set [1], the half-maximal effective concentration (EC50) turned out to be 50 nM.

Turning to `COC(=O)N[C@H](C(=O)NN(CC[C@](O)(Cc1ccccc1)C(=O)N[C@H]1c2ccccc2C[C@H]1O)Cc1ccc(Br)cc1)C(C)(C)C`, the CC50 at 120 h in data set [2] is more than 10000 nM. Moreover, at Protease, the Ki was more than 5000 nM. In data set [1], the EC50 was more than 10000 nM.

On to `CNC(=O)[C@@H](NC(=O)[C@](O)(CCN(Cc1ccc(Br)cc1)NC(=O)[C@@H](NC(=O)OC)C(C)(C)C)Cc1ccccc1)C(C)(C)C`, for which the CC50 at 120 h in data set [2] was more than 10000 nM. The Ki at Protease amounted to 2200 nM. The EC50 in data set [1] is more than 10000 nM.

For the compound `COC(=O)N[C@H](C(=O)NN(CC[C@@](O)(Cc1ccccc1)C(=O)N[C@H]1c2ccccc2C[C@H]1O)Cc1ccc(-c2ccc(NC(C)=O)cc2)cc1)C(C)(C)C`, the cytotoxic concentration (CC50) at 120 h in data set [2] is more than 10000 nM. Moreover, the affinity on Protease corresponds to a Ki of 1.8 nM. The EC50 in data set [1] was found to be 30 nM.

On to `CNC(=O)[C@@H](NC(=O)[C@@](O)(CCN(Cc1ccc(Br)cc1)NC(=O)[C@@H](NC(=O)OC)C(C)(C)C)Cc1ccccc1)C(C)C`, for which the CC50 at 120 h in [2] is more than 10000 nM. For the same compound, the Ki at Protease turned out to be 2.9 nM. Moreover, the EC50 in [1] was found to be 160 nM.

For the compound `COCCNC(=O)[C@@H](NC(=O)[C@@](O)(CCN(Cc1ccc(Br)cc1)NC(=O)[C@@H](NC(=O)OC)C(C)(C)C)Cc1ccccc1)C(C)C`, the half-maximal cytotoxic concentration (CC50) at 120 h in data set [2] was more than 10000 nM. The Ki at Protease stood at 3.2 nM. In addition, in data set [1], the 50% effective concentration (EC50) is 170 nM.

With `COC(=O)N[C@H](C(=O)NN(CC[C@@](O)(Cc1ccccc1)C(=O)N[C@H]1c2ccccc2C[C@H]1O)Cc1ccc(-c2cnn(C)c2)cc1)C(C)(C)C`, the CC50 at 120 h in data set [2] is more than 10000 nM. Also, the Ki at Protease stood at 1.7 nM. Moreover, the concentration giving a half-maximal response (EC50) in data set [1] is 10 nM.

As for `COC(=O)N[C@H](C(=O)NN(CC[C@@](O)(Cc1ccccc1)C(=O)N[C@H]1c2ccccc2C[C@H]1O)Cc1ccc(Br)cc1)C(C)(C)C`, the EC50 in data set [4] worked out at 70 nM; in data set [5] it was 8 nM; in data set [6] it was 240 nM; in [1], 40 nM; in data set [9], 74 nM; in data set [10], 44 nM. The CC50 at 120 h in [2] was found to be 7900 nM. The clearance in [3] is more than 300 µL/min/mg. The inhibition constant (Ki) worked out at 2.9 nM on Protease and 30 nM in data set [8]. For the same compound, the Papp in [7] turned out to be 42 ×10⁻⁶ cm/s.

As for `COC(=O)N[C@H](C(=O)NN(CC[C@@](O)(Cc1ccccc1)C(=O)N[C@H]1c2ccccc2C[C@H]1O)Cc1ccc(-c2ccc3c(c2)OCO3)cc1)C(C)(C)C`, the CC50 at 120 h in data set [2] amounted to 6100 nM. In addition, on Protease, the Ki is 8 nM. Also, in data set [1], the EC50 came to 3 nM.

For `CNC(=O)[C@@H](NC(=O)[C@@](O)(CCN(Cc1ccc(Br)cc1)NC(=O)[C@@H](NC(=O)OC)C(C)(C)C)Cc1ccccc1)C(C)(C)C`, the CC50 at 120 h in data set [2] was more than 10000 nM. In addition, the affinity at Protease corresponds to a Ki of 1.7 nM. In addition, in data set [1], the concentration for a half-maximal effect (EC50) worked out at 72 nM.

For the compound `CNC(=O)[C@@H](NC(=O)[C@](O)(CCN(Cc1ccc(Br)cc1)NC(=O)[C@@H](NC(=O)OC)C(C)(C)C)Cc1ccccc1)C(C)C`, the 50% cytotoxic concentration (CC50) at 120 h in [2] is more than 10000 nM. Affinity at Protease was put at a Ki of 1240 nM. The EC50 in data set [1] is more than 10000 nM.

Consider `COC(=O)N[C@H](C(=O)NN(CC[C@@](O)(Cc1ccccc1)C(=O)N[C@H]1c2ccccc2C[C@H]1O)Cc1ccc(-c2ccccc2)cc1)C(C)(C)C`, for which, in data set [2], the CC50 at 120 h is more than 10000 nM. Also, the affinity on Protease, expressed as Ki, was 12 nM. Besides, the EC50 in data set [1] amounted to 8 nM.

Take `COC(=O)N[C@H](C(=O)NN(CC[C@@](O)(Cc1ccccc1)C(=O)N[C@H]1c2ccccc2C[C@H]1O)Cc1ccc(-c2ccccn2)cc1)C(C)(C)C`: the EC50 was determined as 6 nM in data set [4]; 8 nM in [5]; 130 nM in data set [6]; 7 nM in data set [1]; 24 nM in data set [9]; 7 nM in [10]. Further, the half-maximal cytotoxic concentration (CC50) at 120 h in data set [2] was more than 10000 nM. Moreover, the clearance in data set [3] amounted to 20 µL/min/mg. In addition, the Papp in [7] is 3.5 ×10⁻⁶ cm/s.

Regarding `COC(=O)N[C@H](C(=O)NN(CC[C@@](O)(Cc1ccccc1)C(=O)N[C@H]1c2ccccc2C[C@H]1O)Cc1ccc(-c2cccnc2)cc1)C(C)(C)C`, the EC50 is 14 nM in [4]; 10 nM in data set [5]; 600 nM in data set [6]; 9 nM in data set [1]; 27 nM in data set [9]; 19 nM in data set [10]. Moreover, the cytotoxic concentration (CC50) at 120 h in data set [2] stood at 4900 nM. Besides, the clearance in [3] was more than 300 µL/min/mg. Moreover, the Ki on Protease was 1.2 nM; in data set [8], 16 nM. Besides, the Papp in [7] came to 26 ×10⁻⁶ cm/s.

In the case of `COC(=O)N[C@H](C(=O)NN(CC[C@@](O)(Cc1ccccc1)C(=O)N[C@H]1c2ccccc2C[C@H]1O)Cc1ccc(-c2ccncc2)cc1)C(C)(C)C`, the CC50 at 120 h in [2] is more than 10000 nM. For the same compound, the inhibition constant (Ki) on Protease worked out at 2.3 nM. Moreover, the EC50 in [1] amounted to 3 nM.

For `COC(=O)N[C@H](C(=O)NN(CC[C@@](O)(Cc1ccccc1)C(=O)N[C@H]1c2ccccc2C[C@H]1O)Cc1ccc(-c2cc(F)cc(F)c2)cc1)C(C)(C)C`, the CC50 at 120 h in data set [2] is more than 10000 nM. In addition, the Ki at Protease was 11 nM. The EC50 in data set [1] was 13 nM.

Regarding `COC(=O)N[C@H](C(=O)NN(CC[C@@](O)(Cc1ccccc1)C(=O)N[C@H]1c2ccccc2C[C@H]1O)Cc1ccc(-c2c(C)noc2C)cc1)C(C)(C)C`, the 50% cytotoxic concentration (CC50) at 120 h in data set [2] is more than 10000 nM. At Protease, the inhibition constant Ki amounted to 2.8 nM. For the same compound, in data set [1], the concentration for a half-maximal effect (EC50) turned out to be 5 nM.

Turning to `COC(=O)N[C@H](C(=O)NN(CC[C@@](O)(Cc1ccccc1)C(=O)N[C@H]1c2ccccc2C[C@H]1O)Cc1ccccc1)C(C)(C)C`, in data set [2], the CC50 at 120 h is more than 10000 nM. In addition, on Protease, the Ki was determined as 2.3 nM. Also, the EC50 in data set [1] stood at 190 nM.

The compound `COC(=O)N[C@H](C(=O)NN(CCc1ccccc1)CC[C@@](O)(Cc1ccccc1)C(=O)N[C@H]1c2ccccc2C[C@H]1O)C(C)(C)C` yielded an inhibition constant (Ki) at Protease of 8.2 nM. Further, the concentration giving a half-maximal response (EC50) in data set [1] amounted to 6800 nM.

As to `COCCNC(=O)[C@@H](NC(=O)[C@](O)(CCN(Cc1ccc(Br)cc1)NC(=O)[C@@H](NC(=O)OC)C(C)(C)C)Cc1ccccc1)C(C)C`, in data set [2], the cytotoxic concentration (CC50) at 120 h is more than 10000 nM. At Protease, this compound showed a Ki of 2750 nM. Moreover, the EC50 in [1] was more than 10000 nM.

`COC(=O)N[C@H](C(=O)N[C@@H](Cc1ccccc1)[C@@H](O)CN(Cc1ccc(-c2ccccn2)cc1)NC(=O)[C@@H](NC(=O)OC)C(C)(C)C)C(C)(C)C` [ATAZANAVIR] yielded a Ki at Protease of 0.5 nM.

For the compound `Cc1cccc(C)c1OCC(=O)N[C@@H](Cc1ccccc1)[C@@H](O)C[C@H](Cc1ccccc1)NC(=O)[C@H](C(C)C)N1CCCNC1=O` [LOPINAVIR], in [1], the half-maximal effective concentration (EC50) is 10 nM.

`CC(C)c1nc(CN(C)C(=O)N[C@H](C(=O)N[C@@H](Cc2ccccc2)C[C@H](O)[C@H](Cc2ccccc2)NC(=O)OCc2cncs2)C(C)C)cs1` [RITONAVIR]: the half-maximal effective concentration (EC50) in data set [1] was determined as 50 nM.

(Values after ChEMBL document CHEMBL1154744, “HIV-1 protease inhibitors with a transition-state mimic comprising a tertiary alcohol: improved antiviral activity in cells” (J Med Chem, 2010).)
